The test system of one test is CFTR protein. The test is described as follows: CFTR western blot, mature CFTR protein in Flp-In-293 cells stably expressing c.2988G>A. The class given is cell-based, human. The following applies: Flp-In-293 c.2988G>A stable cells, 60 μM, 5 days. The method, then:
For CFTR WB, 40 μg of protein lysate was separated on 7.5% Criterion TGX protein gel (BioRad) and transferred to a PVDF membrane using a Trans-Blot Turbo Transfer System (BioRad). After blocking in 5% non-fat dry milk (BioRad), the membrane was probed with mouse monoclonal anti-CFTR antibody (1:5000 in PBST) that recognizes amino acids 1204-1211 (596, CFFT, North Carolina Chapel Hill). Rabbit monoclonal anti-Na+K+ ATPase (Abcam) (1:50,000 in PBST) was used as a loading control. Secondary antibodies were anti-mouse (1:150,000 GE Healthcare) and anti-rabbit (1:100,000 GE Healthcare), respectively. Blots were exposed on film using ECL Primer Western Blotting Detection Reagent (GE Healthcare)
WT CFTR-EMG-i14-i18, CFTR-EMG-i14-i18 harboring c.2988G>A, Flp-In-CFBE, and Flp-In-293 cells stably expressing WT-EMG and c.2988G>A EMG were generated. Both Flpin-293 and Flp-In-CFBE cells lack endogenous CFTR expression (CFBE41o-) and contain a single Flp recombinase target site. Co-transfection of EMG plasmid with pOG44 (a plasmid encoding Flp recombinase) allowed for genomic integration at the FRT site. Hygromycin was used for stable cell selection.
CFTR protein levels was assessed in Flp-In-293 cells stably expressing the c.2988G>A splicing variant after treatment with Compound (I) for 5 days. […]
On the technique in general: Immunoblotting shows a protein as a band on a membrane.

For another test, the system named is PARP6 minigene, Exon X. The test is described as follows: PARP6 minigene splicing assay, RT-PCR. The class given is cell-based. The following applies: mutated PARP6. An excerpt:
FIGS. 3E-3G Upper row: The length of the exon triplets cloned into minigenes constructs are shown. The flanking sequences of the 5′ splice sites of Exon X are shown in LOGO plots. The height of each nucleotide was estimated using in silico saturated mutagenesis, with the corresponding closely matched CNN Motifs indicated below the plots. […] Middle row: Splicing changes for Exon X in both wildtype and mutated exon triplets, predicted by the CNN model (left) and measured by RT-PCR of the minigene (right). The RT-PCR experiments were performed in duplicate and independently repeated three times for each minigene to make the bar plots (two-tailed, unpaired Student's t test). Bottom row: Example of splicing changes induced by treatment with Compound (I) in the minigene splicing assays. The percentage for Exon X inclusion is indicated beneath each lane, from treated and untreated conditions in both wildtype and mutated minigenes. […] The statistical significance, as shown in FIGS. 3E-3G, was determined via two-tailed, unpaired Student's test: *p<0.05; **p<0.01; ***p<0.001. […]
Wild-type and mutant double-stranded DNA (dsDNA) fragments, selected based on low nucleotide length and exon-skipping probability, were ordered through GENEWIZ (FragmentGENE). […] Concentrations were determined using a nanodrop spectrometer.

On to `Clc1nc(NCc2ccncc2)c2cc[nH]c2n1` [Compound (I), 2-chloro-N-(pyridin-4-ylmethyl)-7H-pyrrolo[2,3-d]pyrimidin-4-amine], for which the “amount of mature CFTR protein” value in the test on CFTR protein was ~20 % of WT. Moreover, the “Exon X splicing response confirmed by RT-PCR” value in the test on PARP6 minigene, Exon X is on record as “inclusion”.

These data come from US20230047208A1, “RNA Splicing Modulation” (The General Hospital Corporation, priority 2020, published 2023).
